Assay results as given in patent US12479858B2, “Macrocyclic compounds as sting agonists and methods and uses thereof” (Lupin Limited, priority 2019, dated 2025).
Entries after “also recorded” stand apart in the source; their conditions may differ. Counter-ions that a name gives are not always drawn. Like-named read-outs stand apart in the source and are kept apart here.

Tests used:
[1] = biological target: T1, Human STING (Homo sapiens, UniProt Q86WV6, G230A/H232R/R293Q/R71H); assay: Stimulation of human STING signaling in THP1 cell line (THP1-Blue ISG SEAP reporter); type: cell-based; settings: THP1-Blue ISG cells, SEAP activity, 18-20 hours
T1 construct: using human THP1-Blue™ ISG SEAP based reporter cell line (Invivogen); host or cells: THP1-Blue ISG cells (human monocytic THP-1 derived SEAP reporter line)
T1 sequence (Q86WV6 whole entry R71H/G230A/H232R/R293Q): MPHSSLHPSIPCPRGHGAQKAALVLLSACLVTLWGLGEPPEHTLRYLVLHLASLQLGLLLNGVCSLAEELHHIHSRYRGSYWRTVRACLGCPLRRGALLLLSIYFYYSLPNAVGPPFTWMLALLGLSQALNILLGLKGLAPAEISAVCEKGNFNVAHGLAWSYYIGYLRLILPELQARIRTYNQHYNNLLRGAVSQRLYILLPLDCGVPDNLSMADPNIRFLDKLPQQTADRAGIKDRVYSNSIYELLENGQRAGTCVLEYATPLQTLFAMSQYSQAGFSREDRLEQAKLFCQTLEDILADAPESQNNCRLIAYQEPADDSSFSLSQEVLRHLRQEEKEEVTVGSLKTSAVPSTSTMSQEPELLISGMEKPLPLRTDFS
Procedure: Biological Assay—Stimulation of Human STING Signaling in THP1 Cell Line
Compounds were tested for their STING activation potential using human THP1-Blue™ ISG SEAP based reporter cell line (Invivogen). Briefly, THP1-Blue ISG cells (100,000 cells/well) in 96 well plate were treated with varying concentrations of test and reference compounds and incubated at 37° C. with 5% CO2 for 18-20 hours. The control untreated cells were also set up. Post incubation, the cell supernatant was tested for SEAP (Secreted Embryonic Alkaline Phosphatase) activity using the QuantiBlue™ substrate reagent (Invivogen). The formation of blue coloured product was quantified by measuring absorbance at wavelength of 620 nm using PheraStar/Tecan reader. The average of duplicate readouts for each data point was plotted in GraphPad prism 6 against the concentration of test or reference compound to calculate EC50 value. The fold of SEAP induction or increase in luminescence at different data points was estimated against the un-stimulated cell control set.

[2] = tested on: Interferon beta (IFNβ), interleukin-6 (IL-6) and tumor necrosis factor alpha (TNFα); assay: Serum and tumor cytokine levels in CT26 tumor-bearing mice (ELISA); type: in vivo, BALB/c mice
Procedure: (§1) Pharmacokinetic and Pharmacodynamic Profiling and Estimation of Immune Cell Infiltration in Tumors Following Treatment with Compounds 2, 6, 8, 12 and 14
(§2) Serum and tumor cytokine levels and corresponding compound concentrations in mouse plasma were determined following single-dose intravenous administration in CT26 (murine colorectal carcinoma) tumor-bearing mice. Briefly, naïve BALB/c mice in the age group of 6-8 weeks were inoculated with 0.1 million CT-26 cells/animal in phosphate buffered saline (PBS), subcutaneously. […] Blood and tumor samples were harvested at various time points up to 24 h post-dose. Tumor samples were homogenized and prepared for cytokine estimation (ELISA) and compound concentration were determined by LC-MS/MS. Serum aliquots and tumor samples were snap-frozen and stored at −80° C. till further analysis. Serum and tumor samples were evaluated for Interferon beta (IFNβ), interleukin-6 (IL-6) and tumor necrosis factor alpha (TNFα) by enzyme linked immunosorbent assay (ELISA) using kits from R & D systems (Quantikine mouse IL-6 and TNFα kits) and PBL biosciences (Verikine mouse IFNβ kit).
Cytokine analysis from mouse serum samples: For IL-6 and TNFα estimation, 50 μL of test samples or internal standard or control were applied to wells in duplicates and incubated for 2 h at room temperature, followed by aspiration and washing four times with 400 μL of wash buffer. 100 μL of mouse IL-6 or TNFα conjugate solution was added and incubated further for 2 h at room temperature and followed later by 4 wash cycles. 100 μL of substrate solution was added to each well with addition of stop solution after 30 min. Optical density was measured at 450 nm averaged and was used for further calculations following subtraction of respective blank controls. Cytokine concentrations were determined by interpolating the optical density of samples into the reference standard curve utilizing four parameter logistic (4-PL) curve-fit. Cytokine concentrations were normalized with their respective dilution factors and represented in pg/mL. For IFNβ estimation, 100 μL test sample or internal standard or controls were applied to the wells in duplicates and incubated for 1 h at room temperature followed by three washes and addition of the anti-mouse IFNβ antibody solution with further 1 h incubation. This was followed by addition of horseradish peroxidase (HRP) solution and three washes, later addition of TMB substrate and reading the optical density at 450 nm. Optical densities were blank-subtracted and interpolated to the reference standard utilizing the four parameter logistic (4-PL) curve-fit. Cytokine concentrations were normalized with their respective dilution factors and represented in pg/mL. Tables 4 and 5 indicate cytokine levels for compounds 2, 6, 8, 12, and 14 in serum and tumor at different administered doses.
Cytokine analysis from tumor samples: Tumor samples were homogenized in a bead-based homogenizer and lysates were prepared with buffer supplemented with 1% Triton X-100 and protease inhibitors. Cytokine levels were estimated by ELISA and expressed as pg/g tumor.

[3] = Plasma and tumor compound concentrations in CT26 tumor-bearing mice (LC-MS/MS); type: in vivo, BALB/c mice; settings: for concentration at 3.5 h / concentration at 8 h / concentration at 12 h: BALB/c, mouse, intravenous; for concentration at 12 h: 12 h (Table 3)
Procedure: as §1, §2
Bioanalysis of plasma and tumor samples: Plasma and tumor concentrations of test compounds were determined by LC-MS/MS method. Tumor samples were homogenized utilizing a bead-based homogenizer. Plasma samples and tumor homogenates were extracted using protein precipitation method with organic solution containing respective internal standards. Plasma and tumor concentrations were determined against respective calibration curve. Table 3 indicates the concentration of Compound 2 in plasma and tumor at different administered doses. Table 4 indicates the concentration of Compounds 6, 8, 12, and 14 in plasma and tumor at different administered doses. Table 5 indicates cytokine levels for Compound 2 in serum and tumor at different doses. Table 6 indicates cytokine levels for Compounds 6, 8, 12 and 14 in serum and tumor at 0.375 mpk.

[4] = tested on: CD3^+CD8^+ T cells; assay: Estimation of immune cell infiltration in tumors (flow cytometry); type: in vivo, Balb/c mice
Procedure: Estimation of immune cell infiltration in tumors: CT-26 tumor-bearing Balb/c mice were treated intravenously with 0.375 mg/kg of test compounds and blood and tumors were processed for analysis of CD8^+, CD3^+ and CD45^+ T cells at 24 h and 96 h after start of treatment. Blood samples were subjected to RBC lysis and the cells were recovered by centrifugation. Following wash with PBS, the cells were blocked using TruStain FcX™ blocking antibody and stained with fluorophore-tagged anti-CD45, anti-CD3 and anti-CD8 antibodies. Tumor samples were minced and subjected to tissue digestion using freshly prepared collagenase-IV solution (1 mg/ml) containing DNase (0.05 mg/ml) for 1-1.5 h at 37° C. and 150-200 rpm. Single cell suspension was prepared by filtering it through a 100 μm mesh and checked for cell viability. Cells were stained with various antibodies as mentioned above. The distinct T cell subsets were analysed on FACS Canto II (BD) and percentage of each population was calculated after initial gating of CD45^+ lymphocyte population.

[5] = CT26 tumor-bearing mice, single i.v. dose

CCn1nc(C)cc1C(=O)Nc1nc2cc(C(N)=O)cc3c2n1C/C=C/Cn1c(NC(=O)c2cc(C)nn2CC)nc2cc(C(=O)N[C@H]4CC[C@H](C(=O)O)CC4)cc(c21)OCCCO3 [Compound 2, (1R,4R)-4-((E)-12-carbamoyl-1,15-bis(1-ethyl-3-methyl-1H-pyrazole-5-carboxamido)-8,9,16,19-tetrahydro-7H-6,10-dioxa-2,14,15a,19a-tetraazacyclopentadeca[3,2,1-cd:8,9,10-c′d′]diindene-4-carboxamido)cyclohexane-1-carboxylic acid sodium salt]
EC50 [1]: 1 to 10 nM
Serum Cytokines IFNβ ([2]; 0.093 mg/kg single i.v., 3.5 h): 446 pg/mL
Serum Cytokines IL-6 ([2]; 0.093 mg/kg single i.v., 3.5 h): 1323 pg/mL
Serum Cytokines TNFα ([2]; 0.093 mg/kg single i.v., 3.5 h): 261 pg/mL
Tumor Cytokines IFNβ ([2]; 0.093 mg/kg single i.v., 3.5 h): 4000 pg/g
Tumor Cytokines IL-6 ([2]; 0.093 mg/kg single i.v., 3.5 h): 4580 pg/g
Tumor Cytokines TNFα ([2]; 0.093 mg/kg single i.v., 3.5 h): 2460 pg/g
Serum Cytokines IFNβ ([2]; 0.093 mg/kg single i.v., 8 h): 64 pg/mL
Serum Cytokines IL-6 ([2]; 0.093 mg/kg single i.v., 8 h): 662 pg/mL
Serum Cytokines TNFα ([2]; 0.093 mg/kg single i.v., 8 h): 210 pg/mL
Tumor Cytokines IFNβ ([2]; 0.093 mg/kg single i.v., 8 h): 955 pg/g
Tumor Cytokines IL-6 ([2]; 0.093 mg/kg single i.v., 8 h): 1100 pg/g
Tumor Cytokines TNFα ([2]; 0.093 mg/kg single i.v., 8 h): 637 pg/g
Serum Cytokines IFNβ ([2]; 0.187 mg/kg single i.v., 3.5 h): 1920 pg/mL
Serum Cytokines IL-6 ([2]; 0.187 mg/kg single i.v., 3.5 h): 3139 pg/mL
Serum Cytokines TNFα ([2]; 0.187 mg/kg single i.v., 3.5 h): 574 pg/mL
Tumor Cytokines IFNβ ([2]; 0.187 mg/kg single i.v., 3.5 h): 4169 pg/g
Tumor Cytokines IL-6 ([2]; 0.187 mg/kg single i.v., 3.5 h): 4798 pg/g
Tumor Cytokines TNFα ([2]; 0.187 mg/kg single i.v., 3.5 h): 3201 pg/g
Serum Cytokines IFNβ ([2]; 0.187 mg/kg single i.v., 8 h): 127 pg/mL
Serum Cytokines IL-6 ([2]; 0.187 mg/kg single i.v., 8 h): 738 pg/mL
Serum Cytokines TNFα ([2]; 0.187 mg/kg single i.v., 8 h): 136 pg/mL
Tumor Cytokines IFNβ ([2]; 0.187 mg/kg single i.v., 8 h): 962 pg/g
Tumor Cytokines IL-6 ([2]; 0.187 mg/kg single i.v., 8 h): 2244 pg/g
Tumor Cytokines TNFα ([2]; 0.187 mg/kg single i.v., 8 h): 531 pg/g
Serum Cytokines IFNβ ([2]; 0.375 mg/kg single i.v., 3.5 h): 8540 pg/mL
Serum Cytokines IL-6 ([2]; 0.375 mg/kg single i.v., 3.5 h): 6014 pg/mL
Serum Cytokines TNFα ([2]; 0.375 mg/kg single i.v., 3.5 h): 1242 pg/mL
Tumor Cytokines IFNβ ([2]; 0.375 mg/kg single i.v., 3.5 h): 8044 pg/g
Tumor Cytokines IL-6 ([2]; 0.375 mg/kg single i.v., 3.5 h): 8103 pg/g
Tumor Cytokines TNFα ([2]; 0.375 mg/kg single i.v., 3.5 h): 6074 pg/g
Serum Cytokines IFNβ ([2]; 0.375 mg/kg single i.v., 8 h): 263 pg/mL
Serum Cytokines IL-6 ([2]; 0.375 mg/kg single i.v., 8 h): 1201 pg/mL
Serum Cytokines TNFα ([2]; 0.375 mg/kg single i.v., 8 h): 160 pg/mL
Tumor Cytokines IFNβ ([2]; 0.375 mg/kg single i.v., 8 h): 1723 pg/g
Tumor Cytokines IL-6 ([2]; 0.375 mg/kg single i.v., 8 h): 2715 pg/g
Tumor Cytokines TNFα ([2]; 0.375 mg/kg single i.v., 8 h): 617 pg/g
Serum Cytokines IFNβ ([2]; 0.375 mg/kg single i.v., 12 h): 14 pg/mL
Serum Cytokines IL-6 ([2]; 0.375 mg/kg single i.v., 12 h): 372 pg/mL
Serum Cytokines TNFα ([2]; 0.375 mg/kg single i.v., 12 h): 50 pg/mL
Tumor Cytokines IFNβ ([2]; 0.375 mg/kg single i.v., 12 h): 323 pg/g
Tumor Cytokines IL-6 ([2]; 0.375 mg/kg single i.v., 12 h): 2794 pg/g
Tumor Cytokines TNFα ([2]; 0.375 mg/kg single i.v., 12 h): 298 pg/g
cytokine levels over time [2, 5]: sustained cytokine levels
concentration at 3.5 h ([3]; plasma, 0.093 mg/kg single i.v., 3.5 h, read-out: Plasma Conc.): 110 ± 10 nM
concentration at 8 h ([3]; plasma, 0.093 mg/kg single i.v., 8 h, read-out: Plasma Conc.): 30 nM
concentration at 3.5 h ([3]; plasma, 0.187 mg/kg single i.v., 3.5 h, read-out: Plasma Conc.): 220 ± 20 nM
concentration at 8 h ([3]; plasma, 0.187 mg/kg single i.v., 8 h, read-out: Plasma Conc.): 40 ± 10 nM
concentration at 3.5 h ([3]; plasma, 0.375 mg/kg single i.v., 3.5 h (Table 3), read-out: Plasma Conc.): 470 ± 60 nM
concentration at 8 h ([3]; plasma, 0.375 mg/kg single i.v., 8 h (Table 3), read-out: Plasma Conc.): 80 ± 10 nM
concentration at 12 h ([3]; plasma, 0.375 mg/kg single i.v., read-out: Plasma Conc.): 50 ± 10 nM
concentration at 3.5 h ([3]; tumor, 0.093 mg/kg single i.v., 3.5 h, read-out: Tumor Conc.): 70 ± 20 nM
concentration at 8 h ([3]; tumor, 0.093 mg/kg single i.v., 8 h, read-out: Tumor Conc.): 60 ± 30 nM
concentration at 3.5 h ([3]; tumor, 0.187 mg/kg single i.v., 3.5 h, read-out: Tumor Conc.): 90 ± 20 nM
concentration at 8 h ([3]; tumor, 0.187 mg/kg single i.v., 8 h, read-out: Tumor Conc.): 120 ± 80 nM
concentration at 3.5 h ([3]; tumor, 0.375 mg/kg single i.v., 3.5 h (Table 3), read-out: Tumor Conc.): 230 ± 120 nM
concentration at 8 h ([3]; tumor, 0.375 mg/kg single i.v., 8 h (Table 3), read-out: Tumor Conc.): 140 ± 50 nM
concentration at 12 h ([3]; tumor, 0.375 mg/kg single i.v., read-out: Tumor Conc.): 110 ± 60 nM
compound levels in tumor [3, 5]: sustained levels in tumor
% CD3^+CD8^+ T cells ([4]; infiltration in tumor, 96 h post treatment, 0.375 mg/kg single i.v.): 11.2 ± 0.2%
% CD3^+CD8^+ T cells infiltrating the tumor as compared to the vehicle-treated group ([4]; single i.v. dose of 0.375 mg/kg, 96 h post treatment initiation, sodium salt, 0.375 mg/kg): higher percentage of T cell infiltration over that of vehicle control; also recorded: increase
